Experiments:
[1] = target: T1, Recombinant ROCK2 (amino acids 5-554) (Homo sapiens, UniProt O75116); assay: ROCK inhibition assay, LANCE Ultra TR-FRET kinase assay (ROCK2); format: biochemical; details: 4 μM ATP, 50 nM ULight-CREBtide substrate
T1 construct: ROCK2 (amino acids 5-554); by word order, ROCK2 from SignalChem
Outline: (§1)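 LANCE Ultra TR-FRET kinase assay with recombinant ROCK1 (aa 1-477) or ROCK2 (aa 5-554), 50 nM ULight-CREBtide and ATP at 1 μM (ROCK1) or 4 μM (ROCK2) in HEPES pH 7.5 with MgCl2, 1 h at room temperature. EDTA stop with Eu anti-phospho-CREB Ser133 antibody; 665/615 nm read gives IC50.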

[2] = target: T2, Recombinant ROCK1 (amino acids 1-477) (Homo sapiens, UniProt Q13464); assay: ROCK inhibition assay, LANCE Ultra TR-FRET kinase assay (ROCK1); format: biochemical; details: 1 μM ATP, 50 nM ULight-CREBtide substrate
T2 construct: Recombinant ROCK1 (amino acids 1-477); by word order, ROCK1 from Carna Biosciences
T2 sequence (Q13464 1-477): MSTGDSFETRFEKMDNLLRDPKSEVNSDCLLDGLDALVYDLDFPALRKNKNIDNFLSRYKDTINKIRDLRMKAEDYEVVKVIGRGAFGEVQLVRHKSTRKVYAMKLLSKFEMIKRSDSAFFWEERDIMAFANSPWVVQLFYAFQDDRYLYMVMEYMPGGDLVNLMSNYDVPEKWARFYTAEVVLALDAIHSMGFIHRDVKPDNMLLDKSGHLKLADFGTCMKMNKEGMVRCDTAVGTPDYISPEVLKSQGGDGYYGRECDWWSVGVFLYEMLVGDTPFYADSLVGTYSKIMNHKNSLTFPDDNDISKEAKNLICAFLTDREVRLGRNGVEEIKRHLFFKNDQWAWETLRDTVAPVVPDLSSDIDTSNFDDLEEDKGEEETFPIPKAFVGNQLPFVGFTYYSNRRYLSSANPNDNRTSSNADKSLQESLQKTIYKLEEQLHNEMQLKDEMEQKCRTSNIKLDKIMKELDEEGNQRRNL
Outline: as §1

[3] = test system: ROCK1/2 in A7r5 cells (pMLC2 levels); assay: Inhibition of ROCK1/2 in A7r5 cells, cell-based ELISA of phospho-myosin light chain (pMLC2, Thr18/Ser19); details: Rattus norvegicus, 1.5 h, treated with test compounds for 90 minutes, read-out: pMLC2 (cellular EC50)
Procedure: Inhibition of ROCK1/2 in A7r5 cells was measured through cell-based ELISA assay. Rat aortic smooth muscle cell line A7r5 cells were maintained and treated in DMEM medium with 10% fetal bovine serum. Cells were seeded with 5,000 cells/well in 96 well plates for 24 hours and subsequently treated with test compounds for 90 minutes. Cells were then fixed and processed according to the In-Cell ELISA Colrimetric Detection Kit manual (Thermo Scientific). Cellular phospho-myosin light chain (pMLC2, Thr18/Ser19) levels were determined after treatment with DMSO control or a test compound using the In-Cell ELISA kit.
The resulting data was applied to the following formula ‘[1-(compound/DMSO)]×100%’ to calculate the percent inhibition rate. pMLC2 data obtained from 9 points 3-fold serial dilution of compounds were applied to the nonlinear regression curve fit function of the GraphPad Prism software to calculate the cellular EC50 values.

T1 sequence (O75116 5-554): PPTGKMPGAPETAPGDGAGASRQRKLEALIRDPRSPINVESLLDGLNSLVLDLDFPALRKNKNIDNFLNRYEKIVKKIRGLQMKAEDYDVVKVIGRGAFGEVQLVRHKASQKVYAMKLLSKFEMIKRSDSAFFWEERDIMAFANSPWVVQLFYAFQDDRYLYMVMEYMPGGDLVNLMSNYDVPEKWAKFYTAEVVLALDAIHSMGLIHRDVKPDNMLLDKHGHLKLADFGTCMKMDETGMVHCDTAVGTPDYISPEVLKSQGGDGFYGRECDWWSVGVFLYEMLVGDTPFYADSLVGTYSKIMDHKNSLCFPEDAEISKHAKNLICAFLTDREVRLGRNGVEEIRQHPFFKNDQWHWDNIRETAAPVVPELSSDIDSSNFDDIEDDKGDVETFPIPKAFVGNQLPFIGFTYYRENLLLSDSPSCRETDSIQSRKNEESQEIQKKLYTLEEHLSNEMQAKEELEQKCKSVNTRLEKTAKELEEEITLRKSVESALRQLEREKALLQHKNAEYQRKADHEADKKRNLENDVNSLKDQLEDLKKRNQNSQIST

Row | Structure (SMILES) | IC50 [1] | IC50 [2] | EC50 [3]
1 | Cc1nocc1-c1ccc2c(=O)n(Cc3cccc(O)c3)ccc2c1 [Compound 10] | < 10 nM | 11 to 100 nM | < 100 nM
2 | Cn1nccc1-c1ccc2c(=O)n(Cc3cccc(O)c3)ccc2c1 [Compound 12] | < 10 nM | 11 to 100 nM | 101 to 500 nM
3 | COc1cccc(Cn2ccc3cc(-c4ccncc4)ccc3c2=O)c1 [Compound 22] | < 10 nM | < 10 nM | < 100 nM
4 | COc1cccc(Cn2ccc3cc(-c4ccnc(N)c4)ccc3c2=O)c1 [Compound 24] | 10 to 100 nM | > 501 nM | 101 to 500 nM
5 | CN(C)Cc1ccccc1Cn1ccc2cc(-c3ccnc(N)c3)ccc2c1=O [Compound 25] | < 10 nM | 11 to 100 nM | 101 to 500 nM
6 | Cc1n[nH]cc1-c1ccc2c(=O)n(Cc3cccc(C(=O)NCCc4ccccn4)c3)ccc2c1 [Compound 31] | < 10 nM | < 10 nM | < 100 nM
7 | Cc1nocc1-c1ccc2c(=O)n(Cc3cccc(C(=O)N[C@H]4CC[C@H](O)CC4)c3)ccc2c1 [Compound 75] | 10 to 100 nM | 101 to 500 nM | 101 to 500 nM
8 | Cc1nocc1-c1ccc2c(=O)n(Cc3cccc(C(=O)NC4CCOCC4)c3)ccc2c1 [Compound 77] | < 10 nM | 11 to 100 nM | 101 to 500 nM
9 | Cc1nocc1-c1ccc2c(=O)n(Cc3cccc(C(=O)NCC4CCN(CC(F)F)CC4)c3)ccc2c1 [Compound 82] | 10 to 100 nM | 101 to 500 nM | < 100 nM
10 | Cc1nocc1-c1ccc2c(=O)n(Cc3cccc(C(=O)NC4CCN(CC(F)F)CC4)c3)ccc2c1 [Compound 86] | < 10 nM | 11 to 100 nM | < 100 nM
11 | Cn1nccc1-c1ccc2c(=O)n(Cc3cccc(C(=O)NC4CCN(CC(F)F)CC4)c3)ccc2c1 [Compound 107] | < 10 nM | 11 to 100 nM | 101 to 500 nM
12 | Cn1nccc1-c1ccc2c(=O)n(Cc3cccc(C(=O)NC4CCN(CC(F)(F)F)CC4)c3)ccc2c1 [Compound 108] | < 10 nM | 11 to 100 nM | 101 to 500 nM
13 | Cc1nocc1-c1ccc2c(=O)n(Cc3cccc(C(=O)NC4COC4)c3)ccc2c1 [Compound 146] | 10 to 100 nM | 101 to 500 nM | 501 to 1000 nM
14 | Cn1nccc1-c1ccc2c(=O)n(Cc3cc(F)cc(C(=O)N[C@H]4CC[C@@H](O)CC4)c3)ccc2c1 [Compound 165] | 10 to 100 nM | 101 to 500 nM | 501 to 1000 nM
15 | Nc1cc(-c2ccc3c(=O)n(Cc4cccc(C(=O)NCc5ccccc5CO)c4)ccc3c2)ccn1 [Compound 184] | 10 to 100 nM | 101 to 500 nM | < 100 nM
16 | Nc1cc(-c2ccc3c(=O)n(Cc4cccc(C(=O)NCCc5ccccn5)c4)ccc3c2)ccn1 [Compound 186] | < 10 nM | 11 to 100 nM | < 100 nM
17 | Nc1cc(-c2ccc3c(=O)n(Cc4cccc(C(=O)Nc5ccc6c(c5)CCNC6)c4)ccc3c2)ccn1 [Compound 188] | < 10 nM | 11 to 100 nM | < 100 nM
18 | Cn1ccc(NC(=O)c2cccc(Cn3ccc4cc(-c5ccnc(N)c5)ccc4c3=O)c2)n1 [Compound 200] | < 10 nM | 11 to 100 nM | < 100 nM
19 | CNC(=O)c1cccc(Cn2ccc3cc(-c4cn[nH]c4C(F)(F)F)ncc3c2=O)c1 [Compound 233] | < 10 nM | 11 to 100 nM | 101 to 500 nM
20 | CNC(=O)c1cccc(Cn2ccc3cc(-c4conc4C)ccc3c2=O)c1 [Compound 277] | < 10 nM | 101 to 500 nM | 501 to 1000 nM
21 | CNC(=O)c1cccc(Cn2ccc3cc(-c4cn[nH]c4C(F)(F)F)ccc3c2=O)c1 [Compound 280] | < 10 nM | 11 to 100 nM | 501 to 1000 nM

Row | Structure (SMILES) | IC50 [1] | IC50 [2] | EC50 [3]
22 | CNC(=O)c1cc(F)cc(Cn2ccc3cc(-c4cn[nH]c4C(F)(F)F)ccc3c2=O)c1 [Compound 281] | < 10 nM | 11 to 100 nM | 101 to 500 nM
23 | CNC(=O)c1cc(F)cc(Cn2ccc3cc(-c4conc4C)ccc3c2=O)c1 [Compound 315] | < 10 nM | 11 to 100 nM | 501 to 1000 nM
24 | CNC(=O)c1cccc(Cn2ccc3cc(-c4ccnn4C)ccc3c2=O)c1 [Compound 320] | 10 to 100 nM | 101 to 500 nM | > 1000 nM
25 | CNC(=O)c1cc(F)cc(Cn2ccc3cc(-c4ccnn4C)ccc3c2=O)c1 [Compound 323] | 10 to 100 nM | 101 to 500 nM | 101 to 500 nM
26 | CNC(=O)c1cccc(Cn2ccc3cc(-c4ccnc(N)c4)ccc3c2=O)c1 [Compound 326] | < 10 nM | 11 to 100 nM | 101 to 500 nM
27 | Nc1cc(-c2ccc3c(=O)n(Cc4cccc(C(=O)NCCc5ccccn5)c4)cnc3c2)ccn1 [Compound 437] | < 10 nM | 11 to 100 nM | 101 to 500 nM
28 | CNC(=O)c1cccc([C@@H](C)n2cnc3cc(-c4cn[nH]c4C(F)(F)F)ccc3c2=O)c1 [Compound 440, (R)—N-methyl-3-(1-(4-oxo-7-(5-(trifluoromethyl)-1H-pyrazol-4-yl)quinazolin-3(4H)-yl)ethyl)benzamide] | < 10 nM | 11 to 100 nM | 101 to 500 nM
29 | CNC(=O)c1cccc([C@@H](C)n2cnc3cc(-c4cn[nH]c4Cl)ccc3c2=O)c1 [Compound 466] | < 10 nM | 11 to 100 nM | < 100 nM
30 | CNC(=O)c1cccc([C@@H](C)n2cnc3cc(-c4conc4C)ccc3c2=O)c1 [Compound 469] | < 10 nM | 11 to 100 nM | < 100 nM
31 | CNC(=O)c1cccc(Cn2cc(CC(C)O)c3cc(-c4c[nH]nc4N)ccc3c2=O)c1 (stereo not shown) [Compound 562] | < 10 nM | 11 to 100 nM | 
32 | CNC(=O)c1cccc(C(C)n2cc(CCN(C)C)c3cc(-c4cn[nH]c4C(F)(F)F)ccc3c2=O)c1 (stereo not shown) [Compound 563] | < 10 nM | 11 to 100 nM | 
33 | CNC(=O)c1cccc(Cn2cc(CCN(C)C)c3cc(-c4cn[nH]c4Cl)ccc3c2=O)c1 [Compound 564] | < 10 nM | 11 to 100 nM | 
34 | CNC(=O)c1cccc(C(C)n2cc(CCN(C)C)c3cc(-c4cn[nH]c4Cl)ccc3c2=O)c1 (stereo not shown) [Compound 565] | < 10 nM | 11 to 100 nM | 
35 | CNC(=O)c1cccc(Cn2cc(CCN(C)C)c3cc(-c4ccnn4C)ccc3c2=O)c1 [Compound 566] | < 10 nM | 11 to 100 nM | 
36 | CNC(=O)c1cccc(Cn2cc(CCN(C)C)c3cc(-c4c[nH]nc4N)ccc3c2=O)c1 [Compound 567] | < 10 nM | 11 to 100 nM | 
37 | CNC(=O)c1cccc([C@@H](C)n2cnc3cc(-c4cn[nH]c4C(F)(F)F)ncc3c2=O)c1 [Compound 568, (R)—N-methyl-3-(1-(4-oxo-7-(5-(trifluoromethyl)-1H-pyrazol-4-yl)pyrido[4,3-d]pyrimidin-3(4H)-yl)ethyl)benzamide] | < 10 nM | 11 to 100 nM | 
38 | CNC(=O)c1cccc([C@@H](C)n2cnc3cc(-c4cn[nH]c4Cl)ncc3c2=O)c1 [Compound 569] | < 10 nM | < 10 nM | 
39 | CNC(=O)c1cccc([C@@H](C)n2cnc3cc(-c4cn[nH]c4F)ncc3c2=O)c1 [Compound 570] | < 10 nM | < 10 nM | 
40 | CNC(=O)c1cccc([C@@H](C)n2cnc3cc(-c4cn[nH]c4OC)ncc3c2=O)c1 [Compound 571] | < 10 nM | 11 to 100 nM | 
41 | CNC(=O)c1cccc([C@@H](C)n2cnc3cc(-c4conc4C)ncc3c2=O)c1 [Compound 572] | 10 to 100 nM | 101 to 500 nM | 

From patent US12064426B2, “Selective inhibitors of ROCK1 and ROCK2 protein kinases and uses thereof” (GENOSCO Inc., priority 2021, dated 2024)
